Laboratory results from patent publication US10821115B2, “Compounds that inhibit Mcl-1 protein” (priority 2017, dated 2020).
Read-outs that look alike come from different tables or passages of the source.

Experiments:
[1] = system: human multiple myeloma cell line, OPM-2; assay: Cell viability assay (OPM-2 10 FBS), CellTiter-Glo; type: cell-based
Outline: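 OPM-2 cells at 3000 cells/well in RPMI 1640 with 10% FBS were exposed to serially diluted compounds for 16 h at 37 °C, 5% CO2.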

[2] = target: recombinant human Mcl-1 (residues 171-327) / Bim interaction (Homo sapiens (Human), UniProt Q07820); assay: biochemical; type: binding; details: read-out: Mcl-1 HTRF IC50
[3] = read-out: OPM-2 10% FBS IC50 IP, OPM-2 cells, 10% FBS, 16 h incubation
[4] = 0.1 nM Mcl-1(171-327), 0.05 nM biotin-Bim (51-76)
[5] = Homo sapiens, OPM-2, 16 h, read-out: OPM-2 10% FBS IC50 IP, OPM-2 cells, 10% FBS, 16 h, CellTiter-Glo
[6] = TR-FRET, Mcl-1(171-327) / biotin-Bim (51-76)
[7] = read-out: OPM-2 10% FBS IC50 IP, OPM-2 cells, 10% FBS, 16 h, CellTiter-Glo

Chain of recombinant human Mcl-1 (residues 171-327) / Bim interaction (Q07820 171-327): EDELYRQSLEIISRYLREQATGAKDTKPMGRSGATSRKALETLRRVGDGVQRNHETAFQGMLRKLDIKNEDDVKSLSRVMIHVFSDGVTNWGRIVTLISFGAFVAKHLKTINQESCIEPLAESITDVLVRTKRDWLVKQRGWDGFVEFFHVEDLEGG

Structure (SMILES) | IC50 [1, 3] | IC50 [2, 4] | IC50 [1, 5] | IC50 [2, 6] | IC50 [1, 7]
CO[C@]1(CN2CCN3CCC(F)(F)C[C@H]3C2)/C=C/C[C@H](C)[C@@H](C)S(=O)(=O)NC(=O)c2ccc3c(c2)N(C[C@@H]2CC[C@H]21)C[C@@]1(CCCc2cc(Cl)ccc21)CO3 (single isomer, unassigned) [Example 299] | 456 nM | 0.367 nM |  |  | 
CO[C@]1(CN2CCN3CC[C@H](F)C[C@@H]3C2)/C=C/C[C@H](C)[C@@H](C)S(=O)(=O)NC(=O)c2ccc3c(c2)N(C[C@@H]2CC[C@H]21)C[C@@]1(CCCc2cc(Cl)ccc21)CO3 (single isomer, unassigned) [Example 325] | 192 nM | 0.18 nM |  |  | 
CO[C@]1(CN2CCN3CC[C@H](F)C[C@@H]3C2)/C=C/C[C@H](C)[C@@H](C)S(=O)(=O)NC(=O)c2ccc3c(c2)N(C[C@@H]2CC[C@H]21)C[C@@]1(CCCc2cc(Cl)ccc21)CO3 (single isomer, unassigned) [Example 326] | 488 nM | 0.307 nM |  |  | 
CO[C@]1(CN2CCN3CCCC[C@@H]3C2)/C=C/C[C@H](C)[C@@H](C[C@H](C)O)S(=O)(=O)NC(=O)c2ccc3c(c2)N(C[C@@H]2CC[C@H]21)C[C@@]1(CCCc2cc(Cl)ccc21)CO3 (single isomer, unassigned) [Example 362] | 58 nM | 0.061 nM |  |  | 
CO[C@]1(CN2CCN3CCCC[C@@H]3C2)/C=C/C[C@H](C)[C@@H](C[C@H](C)O)S(=O)(=O)NC(=O)c2ccc3c(c2)N(C[C@@H]2CC[C@H]21)C[C@@]1(CCCc2cc(Cl)ccc21)CO3 (single isomer, unassigned) [Example 363] | 101 nM | 0.08 nM |  |  | 
C[C@@H]1[C@@H](C)CCC[C@]2(CN3CCOC[C@H]3CO2)[C@@H]2CC[C@H]2CN2C[C@@]3(CCCc4cc(Cl)ccc43)COc3ccc(cc32)C(=O)NS1(=O)=O (single isomer, unassigned) [Example 399] | 2100 nM | 0.401 nM |  |  | 
C[C@@H]1[C@@H](C)CCC[C@@](O)(CN=[N+]=[N-])[C@@H]2CC[C@H]2CN2C[C@@]3(CCCc4cc(Cl)ccc43)COc3ccc(cc32)C(=O)NS1(=O)=O (single isomer, unassigned) [Example 506] | 7430 nM | 3.8 nM |  |  | 
C[C@@H]1[C@@H](C)CCC[C@@](O)(CN)[C@@H]2CC[C@H]2CN2C[C@@]3(CCCc4cc(Cl)ccc43)COc3ccc(cc32)C(=O)NS1(=O)=O (single isomer, unassigned) [Example 507] | > 33300 nM | 13.7 nM |  |  | 
CO[C@@]1(C#CCCN2CCOCC2)/C=C/C[C@H](C)[C@@H](C)S(=O)(=O)NC(=O)c2ccc3c(c2)N(C[C@@H]2CC[C@H]21)C[C@@]1(CCCc2cc(Cl)ccc21)CO3 (single isomer, unassigned) [Example 100012] |  |  | 1130 nM | 0.275 nM | 
C[C@@H]1[C@@H](C)C/C=C/[C@@](O)(C#CCCN2CCOCC2)[C@@H]2CC[C@H]2CN2C[C@@]3(CCCc4cc(Cl)ccc43)COc3ccc(cc32)C(=O)NS1(=O)=O (single isomer, unassigned) [Example 100017] |  |  |  | 0.039 nM | 40 nM
C[C@@H]1[C@@H](C)C/C=C/[C@@](O)(C#CCN2CCOCC2)[C@@H]2CC[C@H]2CN2C[C@@]3(CCCc4cc(Cl)ccc43)COc3ccc(cc32)C(=O)NS1(=O)=O (single isomer, unassigned) [Example 100018] |  |  |  | 0.061 nM | 49 nM
C[C@@H]1[C@@H](C)C/C=C/C(O)([C@H]2OCCN(C)C2=O)[C@@H]2CC[C@H]2CN2C[C@@]3(CCCc4cc(Cl)ccc43)COc3ccc(cc32)C(=O)NS1(=O)=O (single isomer, unassigned) [Example 100019] |  |  | 58 nM | 0.182 nM | 
C[C@@H]1[C@@H](C)CCC[C@@](C)(O)[C@@H]2CC[C@H]2CN2C[C@@]3(CCCc4cc(Cl)ccc43)COc3ccc(cc32)C(=O)NS1(=O)=O (single isomer, unassigned) [Example 100048] |  |  | 551 nM | 0.187 nM | 
C[C@@H]1[C@@H](C)CCC[C@](O)(CO)[C@@H]2CC[C@H]2CN2C[C@@]3(CCCc4cc(Cl)ccc43)COc3ccc(cc32)C(=O)NS1(=O)=O (single isomer, unassigned) [Example 100052] |  |  | 424 nM | 0.191 nM | 
C[C@@H]1[C@@H](C)CCC[C@]2(COC(=O)O2)[C@@H]2CC[C@H]2CN2C[C@@]3(CCCc4cc(Cl)ccc43)COc3ccc(cc32)C(=O)NS1(=O)=O (single isomer, unassigned) [Example 100055] |  |  | 4630 nM | 1.27 nM | 
C[C@@H]1[C@@H](C)CCC[C@](O)(CC#N)[C@@H]2CC[C@H]2CN2C[C@@]3(CCCc4cc(Cl)ccc43)COc3ccc(cc32)C(=O)NS1(=O)=O (single isomer, unassigned) [Example 100080] |  |  | 818 nM | 0.61 nM | 
C[C@@H]1[C@@H](C)CCC[C@@](O)(CC#N)[C@@H]2CC[C@H]2CN2C[C@@]3(CCCc4cc(Cl)ccc43)COc3ccc(cc32)C(=O)NS1(=O)=O (single isomer, unassigned) [Example 100081] |  |  | 5930 nM | 7.33 nM | 
CCN(CC)C(=O)C[C@@]1(O)/C=C/C[C@H](C)[C@@H](C)S(=O)(=O)NC(=O)c2ccc3c(c2)N(C[C@@H]2CC[C@H]21)C[C@@]1(CCCc2cc(Cl)ccc21)CO3 (single isomer, unassigned) [Example 100084] |  |  | 1490 nM | 0.745 nM | 
C[C@@H]1[C@@H](C)CCC[C@](O)(CC(=O)N2CCOCC2)[C@@H]2CC[C@H]2CN2C[C@@]3(CCCc4cc(Cl)ccc43)COc3ccc(cc32)C(=O)NS1(=O)=O (single isomer, unassigned) [Example 100087] |  |  | 187 nM | 0.864 nM | 
CNC(=O)C[C@@]1(O)CCC[C@H](C)[C@@H](C)S(=O)(=O)NC(=O)c2ccc3c(c2)N(C[C@@H]2CC[C@H]21)C[C@@]1(CCCc2cc(Cl)ccc21)CO3 (single isomer, unassigned) [Example 100103] |  |  | 778 nM | 0.325 nM | 
C[C@@H]1[C@@H](C)C/C=C/[C@](O)([C@@H](C)C(=O)OC(C)(C)C)[C@@H]2CC[C@H]2CN2C[C@@]3(CCCc4cc(Cl)ccc43)COc3ccc(cc32)C(=O)NS1(=O)=O (single isomer, unassigned) [Example 100110] |  |  | 686 nM | 1.48 nM | 
C[C@@H]1[C@@H](C)CCC[C@]2(OCCS2)[C@@H]2CC[C@H]2CN2C[C@@]3(CCCc4cc(Cl)ccc43)COc3ccc(cc32)C(=O)NS1(=O)=O (single isomer, unassigned) [Example 100116] |  |  | 5940 nM | 3.78 nM | 
C[C@@H]1[C@@H](C)CCC[C@](O)([C@@H](C)C(=O)N(C)C)[C@@H]2CC[C@H]2CN2C[C@@]3(CCCc4cc(Cl)ccc43)COc3ccc(cc32)C(=O)NS1(=O)=O (single isomer, unassigned) [Example 100117] |  |  |  | 2.4 nM | 3170 nM
C[C@@H]1[C@@H](C)CCC[C@](O)([C@@H](C)C(=O)N(C)C)[C@@H]2CC[C@H]2CN2C[C@@]3(CCCc4cc(Cl)ccc43)COc3ccc(cc32)C(=O)NS1(=O)=O (single isomer, unassigned) [Example 100118] |  |  |  | 4.44 nM | 3950 nM
C[C@@H]1[C@@H](C)CCC[C@](O)([C@@H](C)C(=O)N(C)C)[C@@H]2CC[C@H]2CN2C[C@@]3(CCCc4cc(Cl)ccc43)COc3ccc(cc32)C(=O)NS1(=O)=O (single isomer, unassigned) [Example 100119] |  |  |  | 1.72 nM | 1570 nM
